Data: patent publication US8293783B2, “Use of artemisinin derivatives for the treatment of asthma and chronic obstructive pulmonary disease (COPD)” (National University of Singapore, priority 2009, dated 2012)

Key:
[1] = test system: peripheral blood leukocytes; experiment: Flow cytometric analysis of peripheral blood leukocytes; type: in vivo, mouse; conditions: artesunate-treated vs saline-challenged, OVA-challenged and vehicle control mice; data not shown
Procedure: BAL fluid was collected 24 hours after the last OVA or saline aerosol challenge, and total and differential cell counts were performed. […] We have conducted flow cytometric analysis of peripheral blood leukocytes obtained from saline challenged, OVA-challenged, vehicle control, and artesunate-treated mice.

[2] = test system: normal human bronchial epithelial cells; experiment: Cytokine mRNA expression in EGF-stimulated normal human bronchial epithelial cells; type: cell-based; conditions: 10 μM artesunate; EGF 12 hours
Procedure: (§1) To determine the effects of artesunate on OVA-specific immune responses in lymphocytes, thoracic lymph node cells were prepared as described (24). Cells were exposed to […] OVA for 72 hours. Concanavalin A (Con A, 10 μg/ml) was used as a positive control. Supernatants from parallel triplicate cultures were analyzed for cytokine levels by ELISA. Normal human bronchial epithelial cells were cultured in optimized bronchial epithelial bulletkit medium with supplements (Lonza, Basel, Switzerland). Cells were pretreated with 10 μM artesunate or vehicle (0.01% DMSO) 4 hours before stimulation with […] epidermal growth factor (EGF). Total and nuclear proteins, and mRNA were extracted from cells at specified time intervals.
(§2) Lung and cell culture protein lysates ([…] per lane) were separated by 10% SDS-PAGE and immunoblots were developed as described (24). Immunoblots were probed with anti-Akt, anti-phospho-Akt (Ser473), anti-tuberin, anti-phosphotuberin (Ser1462), anti-p70S6K, anti-phospho-p70S6K (Ser389), anti-4E-BP1, anti phospho-4E-BP1 (Ser65), and anti-β-actin antibodies (Cell Signaling Technology, Beverly, Mass.). Proteins were separated by 10% SDSPAGE, probed with anti-Akt, anti-phospho-Akt (Ser473), anti-tuberin, antiphospho-tuberin (Ser1462), anti-p 70S6K, anti-phospho-p70S6K (Ser389), anti-4EBP1, and anti-phospho-4E-BP1 (Ser65), and developed by enhanced chemiluminescence reagent. β-actin was used as an internal control. The experiments were repeated for three times. Primers for inflammatory genes are shown in Table 1 and mRNA expression was analyzed as described (24). Nuclear proteins were analyzed for NF-κB DNA-binding activity using TransAM NF-κB transcription factor assay kit (Active Motif, Carlsbad, Calif.). Total mRNA was extracted using TriZol reagent and the PCR products were separated in a 2% agarose gel visualized under UV light. β-actin was used as an internal control. The experiments were repeated for three times

[3] = test system: PI3K/Akt signaling pathway; experiment: Immunoblotting of EGF-stimulated normal human bronchial epithelial cells; type: cell-based; conditions: 10 μM artesunate, pretreated 4 h; EGF 5, 15 and 30 min
Procedure: as §1, §2

[4] = test system: human rheumatoid arthritis fibroblast-like synoviocytes; conditions: TNF-α-stimulated; cited from earlier work
[5] = test system: OVA-induced serum Ig production in BALB/c mice; experiment: Serum Ig levels by ELISA in OVA-induced mouse asthma model; type: in vivo
Procedure: (§3) Female BALB/c mice, 6 to 8 weeks old (Interfauna, East Yorkshire, UK), were sensitized and challenged with OVA as described (24). Artesunate (3, 10, and 30 mg/kg; Sigma, St. Louis, Mo.) or vehicle (6% dimethyl sulfoxide [DMSO]) in 0.1 ml saline was given by intraperitoneal injections 2 hours before each OVA aerosol challenge. Saline aerosol was used as a negative control. Animal experiments were performed according to the Institutional guidelines for Animal Care and Use Committee of the National University of Singapore. Mice were anesthetized 24 hours after the last aerosol challenge and bronchoalveolar lavage (BAL) was performed as described (24). BAL fluid total and differential cell counts, and cytokine and chemokine levels were determined as described (24). Blood was collected by cardiac puncture, and serum levels of total IgE and OVA-specific IgE, IgG1, and IgG2a levels were determined as described (24).

[6] = test system: phosphoinositide 3-kinase (PI3K)/Akt signaling pathway; conditions: cited from earlier work
[7] = test system: PI3K/Akt signaling pathway; experiment: TNF-α-induced signalling in normal human bronchial epithelial cells; type: cell-based
[8] = test system: OVA-induced inflammatory cell recruitment in BALB/c mice; experiment: BAL fluid total and differential cell counts in OVA-induced mouse asthma model; type: in vivo
Procedure: as §3

[9] = test system: OVA-induced inflammatory gene expression in lung tissues; experiment: Lung mRNA expression of inflammatory genes (RT-PCR); type: in vivo, mouse; conditions: 30 mg/kg pretreatment; OVA-challenged mice
Procedure: (§4) Female BALB/c mice, 6 to 8 weeks old (Interfauna, East Yorkshire, UK), were sensitized and challenged with OVA as described (24). Artesunate (3, 10, and 30 mg/kg; Sigma, St. Louis, Mo.) or vehicle (6% dimethyl sulfoxide [DMSO]) in 0.1 ml saline was given by intraperitoneal injections 2 hours before each OVA aerosol challenge. Saline aerosol was used as a negative control. Animal experiments were performed according to the Institutional guidelines for Animal Care and Use Committee of the National University of Singapore.
as §2

[10] = test system: OVA-induced AHR in BALB/c mice; experiment: Airway hyperresponsiveness (AHR) to methacholine in mechanically ventilated mice; type: in vivo, mouse; conditions: 30 mg/kg; OVA-challenged mice; methacholine 0.5-8.0 mg/ml
Procedure: Female BALB/c mice, 6 to 8 weeks old (Interfauna, East Yorkshire, UK), were sensitized and challenged with OVA as described (24). Artesunate (3, 10, and 30 mg/kg; Sigma, St. Louis, Mo.) or vehicle (6% dimethyl sulfoxide [DMSO]) in 0.1 ml saline was given by intraperitoneal injections 2 hours before each OVA aerosol challenge. Saline aerosol was used as a negative control. […] Mice were anesthetized and tracheotomy was performed as described (24). The trachea was intubated with a cannula that was connected to the pneumotach, ventilator and nebulizer. Airway resistance (RI) and dynamic compliance (Cdyn) in response to increasing concentrations of nebulized mechacholine (0.5-8.0 mg/ml) were recorded using a whole-body plethysmograph chamber (Buxco, Sharon, Conn.) as described (24). Results are expressed as a percentage of the respective basal values in response to phosphate-buffered saline (PBS).

macrophages = conditions: cited from earlier work
[11] = test system: OVA-induced lung tissue eosinophilia and mucus hypersecretion in BALB/c mice; experiment: Histologic analysis of lung tissue (H&E, PAS) in OVA-induced mouse asthma model; type: in vivo; conditions: 30 mg/kg, 24 h after last OVA challenge
Procedure: Female BALB/c mice, 6 to 8 weeks old (Interfauna, East Yorkshire, UK), were sensitized and challenged with OVA as described (24). Artesunate (3, 10, and 30 mg/kg; Sigma, St. Louis, Mo.) or vehicle (6% dimethyl sulfoxide [DMSO]) in 0.1 ml saline was given by intraperitoneal injections 2 hours before each OVA aerosol challenge. Saline aerosol was used as a negative control. Animal experiments were performed according to the Institutional guidelines for Animal Care and Use Committee of the National University of Singapore. Lungs were fixed in 10% neutral formalin, paraffinized, cut into 5-μm sections, and stained with hematoxylin and eosin (H&E) for examining cell infiltration and with periodic acid-Schiff stain (PAS) for measuring mucus production. Quantitative analysis was performed blinded as described (24). Quantitative analyses of inflammatory cell infiltration and mucus production in lung sections were performed as previously described (24). […] To determine the extent of mucus production, goblet cell hyperplasia in the airway epithelium was quantified blind using a 5-point grading system: 0, no goblet cells; 1, <25%; 2, 25-50%; 3, 50-75%; 4, >75%.

p65 NF-κB [12] = experiment: p65 NF-κB DNA-binding activity in EGF-stimulated normal human bronchial epithelial cells; type: cell-based; conditions: 10 μM artesunate; EGF 30 min
Procedure: as §1
(§5) Lung and cell culture protein lysates ([…] per lane) were separated by 10% SDS-PAGE and immunoblots were developed as described (24). Immunoblots were probed with anti-Akt, anti-phospho-Akt (Ser473), anti-tuberin, anti-phosphotuberin (Ser1462), anti-p70S6K, anti-phospho-p70S6K (Ser389), anti-4E-BP1, anti phospho-4E-BP1 (Ser65), and anti-β-actin antibodies (Cell Signaling Technology, Beverly, Mass.). […] Primers for inflammatory genes are shown in Table 1 and mRNA expression was analyzed as described (24). Nuclear proteins were analyzed for NF-κB DNA-binding activity using TransAM NF-κB transcription factor assay kit (Active Motif, Carlsbad, Calif.). […]

[13] = test system: OVA-induced BAL fluid cytokine and chemokine levels in BALB/c mice; experiment: BAL fluid cytokine and chemokine levels by ELISA in OVA-induced mouse asthma model; type: in vivo
Procedure: as §3

p65 NF-κB [14] = experiment: Nuclear p65 NF-κB DNA-binding activity in lung tissues (TransAM ELISA kit); type: in vivo, mouse; conditions: 30 mg/kg; to basal level
Procedure: as §4, §5

[15] = test system: thoracic lymph node cells; experiment: OVA-specific responses in thoracic lymph node cultures from treated mice; type: cell-based, mouse
Procedure: as §1

[16] = test system: PI3K/Akt signaling pathway; experiment: Immunoblotting of PI3K/Akt phosphorylation cascade in lung tissues; type: in vivo, mouse; conditions: 30 mg/kg; OVA-challenged mice; to the basal levels
Procedure: as §4, §2

[17] = 3, 10 and 30 mg/kg i.p. 2 h before each OVA challenge, 24 h after last challenge, dose-dependent, vs DMSO vehicle control
[18] = 3, 10, 30 mg/kg, dose-dependent, to a lesser extent than IL-13 and eotaxin, vs DMSO control
[19] = 3, 10, 30 mg/kg, dose-dependent, vs DMSO control
[20] = mice pretreated with 30 mg/kg, cells cultured 72 h with OVA, vs DMSO

In the case of `C[C@H]1[C@H](OC(=O)CCC(=O)O)O[C@@H]2O[C@@]3(C)CC[C@H]4[C@H](C)CC[C@@H]1[C@@]24OO3` [Artesunate, artesunate], the “percentages of CD3+, CD4+, CD8+ T cells, B cells, NK cells, neutrophils and monocytes in peripheral blood” value [1] is reported as “Similar”, the “EGF-induced up-regulation of IL-6 mRNA expression” value [2] is reported as “noticeably blocked” and the “EGF-induced up-regulation of IL-8 mRNA expression” value [2] is reported as “noticeably blocked”. For the same molecule, the “EGF-induced up-regulation of MCP-1 mRNA expression” value [2] was “noticeably blocked”, the “EGF-induced up-regulation of RANTES mRNA expression” value [2] was “noticeably blocked” and the “EGF-induced phosphorylation of 4E-BP1” value [3] was “markedly inhibited”. The “EGF-induced phosphorylation of Akt” value [3] was “markedly inhibited”, the “EGF-induced phosphorylation of p70S6K” value [3] was “markedly inhibited” and the “EGF-induced phosphorylation of tuberin” value [3] was “markedly inhibited”. For the same molecule, the “production of IL-1β” value [4] was “block”, the “production of IL-6” value [4] was “block” and the “production of IL-8” value [4] was “block”. For the same molecule, the “serum total IgE level” value ([5]; 24 h after last OVA aerosol challenge) was “no effect”, the “serum OVA-specific IgG2a level” value ([5]; OVA-challenged mice) was “no effects” and the “serum OVA-specific IgE level” value ([5]; even at the lowest dose (3 mg/kg)) was “strongly suppressed”. The “serum OVA-specific IgG1 level” value ([5]; suppressed to a lesser extent than OVA-specific IgE) was “significant effects at higher dose”, the “activity against the PI3K/Akt signaling pathway” value [6] was “strong inhibitory activity” and the “TNF-α-induced NF-κB DNA binding activity” value [7] was “inhibited”. For the same molecule, the “TNF-α-induced phosphorylation of Akt” value [7] was “inhibited”, the “TNF-α-induced phosphorylation of p70 S6 kinase” value [7] was “inhibited” and the “TNF-α-induced phosphorylation of phosphoinositide 3-kinase (PI3K)” value [7] was “inhibited”. The “eosinophil count in BAL fluid” value [8, 17] was “drastically decreased”, the “total cell count in BAL fluid” value [8, 17] was “drastically decreased” and the “lymphocyte count in BAL fluid” value ([8]; OVA-challenged mice) was “significant drop”. For the same molecule, the “lung AMCase mRNA level” value [9] was “strong suppression”, the “lung E-selectin mRNA level” value [9] was “strong suppression” and the “lung ICAM-1 mRNA level” value [9] was “strong suppression”. The “lung IL-17 mRNA level” value [9] was “strong suppression”, the “lung IL-33 mRNA level” value [9] was “strong suppression” and the “lung Muc5ac mRNA level” value [9] was “strong suppression”. The “lung TSLP mRNA level” value [9] was “strong suppression”, the “lung VCAM-1 mRNA level” value [9] was “strong suppression” and the “lung YKL-40 mRNA level” value [9] was “strong suppression”. The “lung Ym-2 mRNA level” value [9] was “strong suppression”, the “lung iNOS mRNA level” value [9] was “strong suppression” and the “dynamic compliance (Cdyn) in response to methacholine aerosol” value [10] was “restored”. The “lung/airway resistance (RI) in response to methacholine aerosol” value [10] was “dramatically reduced”, the “lipopolysaccharide-induced production of IL-6” value (macrophages) was “inhibits” and the “lipopolysaccharide-induced production of TNF-α” value (macrophages) was “inhibits”. For the same molecule, the “lipopolysaccharide-induced production of nitric oxide (NO)” value (macrophages) was “inhibits”, the “expression of TLR9” value (macrophages; lipopolysaccharide-induced) was “inhibits” and the “expression of toll-like receptor 4 (TLR4)” value (macrophages; lipopolysaccharide-induced) was “inhibits”. For the same molecule, the “OVA-induced mucus hypersecretion (PAS)” value [11] was “significantly halted”, the “eosinophil-rich leukocyte infiltration in lung tissue (H&E)” value ([11]; vs DMSO control) was “markedly diminished” and the “EGF-induced NF-κB transactivation (DNA binding activity)” value (p65 NF-κB [12]) was “markedly inhibited”. For the same molecule, the “IL-4 level in BAL fluid” value [13, 18] was “reduced”, the “IL-5 level in BAL fluid” value [13, 18] was “reduced” and the “IL-13 level in BAL fluid” value [13, 19] was “drastically reduced”. The “eotaxin level in BAL fluid” value [13, 19] was “drastically reduced”, the “IFN-γ level in BAL fluid” value ([13]; 10 and 30 mg/kg) was “up-regulated” and the “OVA-induced NF-κB transactivation (p65 DNA-binding) in lung tissues” value (p65 NF-κB [14]) was “significantly suppressed”. For the same molecule, the “in vitro OVA-specific IL-4 production” value [15, 20] was “significantly (P<0.05) lowered”, the “in vitro OVA-specific IL-5 production” value [15, 20] was “significantly (P<0.05) lowered” and the “in vitro OVA-specific IL-13 production” value [15, 20] was “significantly (P<0.05) lowered”. For the same molecule, the “in vitro OVA-specific IFN-γ production” value ([15]; mice treated with 30 mg/kg, cells cultured 72 h with OVA) was “elevated”, the “Con A-induced production of IL-4, IL-5, IL-13 and IFN-γ” value ([15]; parallel cultures, Con A 10 μg/ml, data not shown) was “not affected” and the “phosphorylation of 4E-BP1 in lung tissues” value [16] was “markedly reduced”. For the same molecule, the “phosphorylation of Akt in lung tissues” value [16] was “markedly reduced”, the “phosphorylation of p70S6K in lung tissues” value [16] was “markedly reduced” and the “phosphorylation of tuberin in lung tissues” value [16] was “markedly reduced”.
